Assay results published in US20260365670A1, “EGFR INHIBITORS AND USES THEREOF” (DIZAL (JIANGSU) PHARMACEUTICAL CO., LTD., priority 2022, published 2026).
Read-outs that look alike come from different tables or passages of the source.

Experiments:
[1] = biological target: T1, EGFR wild type (Homo sapiens, UniProt P00533); assay: Inhibition of EGFR wild type biochemical enzymatic activity (HTRF); settings: EGFR WT, 1 mM ATP, 1 h, room temperature, read-out: IC50 (nM) @WT
T1 construct: purchased Carna Bio
In short: (§1)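 In a buffer with 5 mM MgCl2, 1 mM MnCl2, 1 mM DTT and 0.01% CHAPS, enzyme turnover of 1 μM biotinylated TK substrate at 1 mM ATP is followed by HTRF after 1 h at room temperature. IC50 is obtained by a four-parameter fit.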

[2] = biological target: T2, EGFR L858R (Homo sapiens, UniProt P00533, L858R); assay: Inhibition of EGFR L858R biochemical enzymatic activity (HTRF); settings: 1 mM ATP, 1 h, room temperature, read-out: IC50 (nM) @L858R
T2 construct: purchased Carna Bio
In short: as §1

[3] = biological target: T3, EGFR L858R/T790M (Homo sapiens, UniProt P00533, L858R/T790M); assay: Inhibition of EGFR L858R/T790M biochemical enzymatic activity (HTRF); settings: EGFR L858R-T790M, 1 mM ATP, 1 h, room temperature, read-out: IC50 (nM) @L858R-T790M
T3 construct: purchased Carna Bio
In short: as §1

[4] = biological target: T4, EGFR Exon19Del (Homo sapiens, UniProt P00533, DEL746-750); assay: Inhibition of EGFR Exon19Del biochemical enzymatic activity (HTRF); settings: EGFR Del19, 1 mM ATP, 1 h, room temperature, read-out: IC50 @Del19
T4 construct: purchased Carna Bio
In short: as §1

[5] = biological target: T5, EGFR Exon19Del/T790M (Homo sapiens, UniProt P00533, DEL746-750/T790M); assay: Inhibition of EGFR Exon19Del/T790M biochemical enzymatic activity (HTRF); settings: EGFR Del19-T790M, 1 mM ATP, 1 h, room temperature, read-out: IC50 (nM) @Del19-T790M
T5 construct: purchased Carna Bio
In short: as §1

[6] = biological target: T6, EGFR[T790M/C797S/L858R] (Homo sapiens, UniProt P00533, C797S/L858R/T790M); assay: Inhibition of EGFR[T790M/C797S/L858R] biochemical enzymatic activity (HTRF); settings: EGFR T790M-C797S-L858R, 1 mM ATP, 1 h, room temperature, read-out: IC50 (nM) @T790M- C797S - L858R
T6 construct: purchased Carna Bio
In short: as §1

[7] = biological target: T7, EGFR[T790M/C797S/d746-750] (Homo sapiens, UniProt P00533, C797S/DEL746-750/T790M); assay: Inhibition of EGFR[T790M/C797S/d746-750] biochemical enzymatic activity (HTRF); settings: EGFR T790M-C797S-Del19, 1 mM ATP, 1 h, room temperature, read-out: IC50 (nM) @T790M - C797S - Del19
T7 construct: purchased Carna Bio
In short: as §1

[8] = biological target: T8, EGFR (d746-750 C797S) (Homo sapiens, UniProt P00533, C797S/DEL746-750); assay: Inhibition of EGFR (d746-750 C797S) biochemical enzymatic activity (HTRF); settings: EGFR Del19-C797S, 1 mM ATP, 1 h, room temperature, read-out: IC50 (nM) @Del19-C797S
T8 construct: purchased signalchem
In short: as §1

[9] = biological target: T9, EGFR (C797S L858R) (Homo sapiens, UniProt P00533, C797S/L858R); assay: Inhibition of EGFR (C797S L858R) biochemical enzymatic activity (HTRF); settings: EGFR L858-C797S, 1 mM ATP, 1 h, room temperature, read-out: IC50 (nM) @L858-C797S
T9 construct: purchased signalchem
In short: as §1

[10] = tested on: Ba/F3 cells expressing EGFR mutations; assay: Cell proliferation assay, Ba/F3 cells expressing EGFR mutations (CellTiter-Glo, 72 hours); type: cell-based; settings: CellTiter-Glo
In short: (§2)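 GI50 is the concentration giving 50% proliferation inhibition. Growth for this was normalised to a baseline viability reading taken when compound was added, and to DMSO wells. PC-9 (500 cells/well) and mutant-EGFR Ba/F3 (5000 cells/well) are treated after overnight seeding in RPMI1640-based medium.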

[11] = tested on: PC-9; assay: Cell proliferation assay, PC-9 cells (CellTiter-Glo, 72 hours); type: cell-based; settings: PC9 cells, CellTiter-Glo, read-out: PC9 GI50
In short: as §2

[12] = tested on: A-431; assay: Cell proliferation GI50, A-431 cells (Table 6); type: cell-based
Method: [Worded in the source for another cell line; this cell line is reported under the same test.] Ba/F3 cells expressing EGFR mutations were seeded in 384-well plates at 5000 cells/well in RPMI1640 medium containing […]. PC-9 at 500 cells/well was seeded into 384-well plates in RPMI1640 medium with 10% FBS. After overnight incubation, the assay plates were dosed with compounds at a series of concentrations. Alongside dosing the assay plates, the day 0 plate was processed using CellTiter-Glo® Luminescent Cell Viability Assay (Promega) to measure the number of viable cells (G0). The assay plates were further incubated for 72 hours and the number of viable cells (G3) was measured. The percentage of proliferation was calculated as: […]=100×(G3 value of sample well−G0 value)/(G3 value of DMSO control−G0 value). The concentration of compound producing 50% proliferation inhibition (GI50) was further calculated in best-fit curves using XLFit software. N/A=not available.

[13] = Mus musculus, BaF3, 72 h, BaF3 cells, EGFR DEL19-C797S, read-out: DEL19-C797S/BaF3 GI50
[14] = Mus musculus, BaF3, 72 h, BaF3 cells, EGFR DEL19-T790-C797S, read-out: DEL19-T790-C797S/BaF3 GI50
[15] = Mus musculus, BaF3, 72 h, BaF3 cells, EGFR L858R, read-out: L858R/BaF3 GI50
[16] = Mus musculus, BaF3, 72 h, BaF3 cells, EGFR L858R-C797S, read-out: L858R-C797S/BaF3 GI50
[17] = Mus musculus, BaF3, 72 h, BaF3 cells, EGFR L858R-T790-C797S, read-out: L858R-T790-C797S/BaF3 GI50
[18] = Mus musculus, BaF3, 72 h, BaF3 cells, EGFR L858R-T790M, read-out: L858R-T790M/BaF3 GI50
[19] = Mus musculus, BaF3, 72 h, EGFR DEL19-T790M, read-out: DEL19-T790M GI50
[20] = Homo sapiens, A-431, A-431 cells

T9 sequence (P00533 25-1210 C797S/L858R): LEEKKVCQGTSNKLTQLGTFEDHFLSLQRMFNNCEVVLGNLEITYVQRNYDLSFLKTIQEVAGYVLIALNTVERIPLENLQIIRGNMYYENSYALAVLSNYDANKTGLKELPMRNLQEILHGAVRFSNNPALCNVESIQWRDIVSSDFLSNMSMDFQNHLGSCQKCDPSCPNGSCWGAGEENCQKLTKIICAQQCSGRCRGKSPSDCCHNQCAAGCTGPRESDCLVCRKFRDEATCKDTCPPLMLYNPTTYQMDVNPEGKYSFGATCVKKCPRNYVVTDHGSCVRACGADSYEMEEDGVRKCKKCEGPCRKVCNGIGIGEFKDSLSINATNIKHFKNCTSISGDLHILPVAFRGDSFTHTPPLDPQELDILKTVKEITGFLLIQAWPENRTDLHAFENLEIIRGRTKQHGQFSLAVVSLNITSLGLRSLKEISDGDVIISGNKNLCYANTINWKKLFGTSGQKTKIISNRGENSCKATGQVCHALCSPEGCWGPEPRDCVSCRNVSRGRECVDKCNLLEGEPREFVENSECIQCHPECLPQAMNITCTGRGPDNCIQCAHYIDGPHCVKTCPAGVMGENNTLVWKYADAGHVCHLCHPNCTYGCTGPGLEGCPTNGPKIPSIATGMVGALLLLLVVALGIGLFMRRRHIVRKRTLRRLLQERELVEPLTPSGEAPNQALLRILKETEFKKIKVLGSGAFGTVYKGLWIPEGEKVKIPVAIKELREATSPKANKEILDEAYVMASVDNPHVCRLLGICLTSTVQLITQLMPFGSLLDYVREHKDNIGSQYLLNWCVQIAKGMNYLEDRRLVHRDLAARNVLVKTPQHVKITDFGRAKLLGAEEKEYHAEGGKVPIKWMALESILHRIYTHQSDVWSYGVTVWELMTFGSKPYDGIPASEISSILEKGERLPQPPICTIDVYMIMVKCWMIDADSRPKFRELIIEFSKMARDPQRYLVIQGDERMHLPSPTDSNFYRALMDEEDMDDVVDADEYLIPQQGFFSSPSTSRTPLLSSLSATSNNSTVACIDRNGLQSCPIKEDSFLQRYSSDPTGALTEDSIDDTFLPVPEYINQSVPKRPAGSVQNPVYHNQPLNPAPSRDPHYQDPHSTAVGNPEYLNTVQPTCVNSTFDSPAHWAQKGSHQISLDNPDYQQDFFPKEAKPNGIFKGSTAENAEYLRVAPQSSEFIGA
T2 sequence (P00533 25-1210 L858R): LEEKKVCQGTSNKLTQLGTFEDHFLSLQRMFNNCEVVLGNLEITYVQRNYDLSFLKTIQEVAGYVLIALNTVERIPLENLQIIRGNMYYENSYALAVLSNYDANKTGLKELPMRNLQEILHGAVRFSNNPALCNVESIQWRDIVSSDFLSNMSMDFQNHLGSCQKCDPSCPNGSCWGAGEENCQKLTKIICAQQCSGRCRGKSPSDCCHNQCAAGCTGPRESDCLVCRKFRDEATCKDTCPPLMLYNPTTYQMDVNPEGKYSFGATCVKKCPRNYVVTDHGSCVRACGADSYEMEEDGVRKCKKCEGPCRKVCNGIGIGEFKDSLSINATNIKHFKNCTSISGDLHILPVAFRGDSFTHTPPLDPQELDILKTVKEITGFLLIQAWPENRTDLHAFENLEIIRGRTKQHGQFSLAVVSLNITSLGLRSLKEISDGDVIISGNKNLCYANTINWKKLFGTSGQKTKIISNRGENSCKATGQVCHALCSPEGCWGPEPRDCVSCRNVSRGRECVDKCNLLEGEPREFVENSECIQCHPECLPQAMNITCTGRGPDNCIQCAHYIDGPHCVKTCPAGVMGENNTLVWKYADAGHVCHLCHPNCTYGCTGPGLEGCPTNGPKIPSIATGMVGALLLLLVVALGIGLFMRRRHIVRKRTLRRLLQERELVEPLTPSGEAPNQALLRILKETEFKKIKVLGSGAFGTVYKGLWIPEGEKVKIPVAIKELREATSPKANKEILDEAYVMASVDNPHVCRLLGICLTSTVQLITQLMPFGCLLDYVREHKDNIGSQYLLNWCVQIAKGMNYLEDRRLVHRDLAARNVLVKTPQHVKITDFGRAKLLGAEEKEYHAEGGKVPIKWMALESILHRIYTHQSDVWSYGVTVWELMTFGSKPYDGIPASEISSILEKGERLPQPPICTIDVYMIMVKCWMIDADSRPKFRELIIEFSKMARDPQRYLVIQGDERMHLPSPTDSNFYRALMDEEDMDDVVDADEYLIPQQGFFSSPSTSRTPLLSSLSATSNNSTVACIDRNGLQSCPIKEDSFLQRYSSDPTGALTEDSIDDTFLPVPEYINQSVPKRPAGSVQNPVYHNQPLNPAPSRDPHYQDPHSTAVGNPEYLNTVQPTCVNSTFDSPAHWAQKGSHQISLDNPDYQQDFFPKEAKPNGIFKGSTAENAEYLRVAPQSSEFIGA
T7 sequence (P00533 with tags, fused parts or gaps DEL746-750/T790M/C797S limits assumed): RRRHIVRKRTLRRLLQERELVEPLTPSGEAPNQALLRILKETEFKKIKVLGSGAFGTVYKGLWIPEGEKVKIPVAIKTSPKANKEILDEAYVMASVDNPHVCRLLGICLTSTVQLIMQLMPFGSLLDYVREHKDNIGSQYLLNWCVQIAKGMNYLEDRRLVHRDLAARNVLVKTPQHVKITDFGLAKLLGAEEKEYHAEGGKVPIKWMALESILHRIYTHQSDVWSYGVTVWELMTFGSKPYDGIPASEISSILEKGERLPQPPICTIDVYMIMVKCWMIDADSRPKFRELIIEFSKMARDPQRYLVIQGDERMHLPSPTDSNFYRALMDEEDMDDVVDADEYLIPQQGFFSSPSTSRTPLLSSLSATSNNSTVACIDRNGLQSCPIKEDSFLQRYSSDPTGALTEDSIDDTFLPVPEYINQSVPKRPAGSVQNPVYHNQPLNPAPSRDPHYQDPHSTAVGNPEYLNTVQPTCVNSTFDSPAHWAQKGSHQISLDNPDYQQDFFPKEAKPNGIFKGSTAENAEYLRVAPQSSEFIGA
T5 sequence (P00533 with tags, fused parts or gaps DEL746-750/T790M limits assumed): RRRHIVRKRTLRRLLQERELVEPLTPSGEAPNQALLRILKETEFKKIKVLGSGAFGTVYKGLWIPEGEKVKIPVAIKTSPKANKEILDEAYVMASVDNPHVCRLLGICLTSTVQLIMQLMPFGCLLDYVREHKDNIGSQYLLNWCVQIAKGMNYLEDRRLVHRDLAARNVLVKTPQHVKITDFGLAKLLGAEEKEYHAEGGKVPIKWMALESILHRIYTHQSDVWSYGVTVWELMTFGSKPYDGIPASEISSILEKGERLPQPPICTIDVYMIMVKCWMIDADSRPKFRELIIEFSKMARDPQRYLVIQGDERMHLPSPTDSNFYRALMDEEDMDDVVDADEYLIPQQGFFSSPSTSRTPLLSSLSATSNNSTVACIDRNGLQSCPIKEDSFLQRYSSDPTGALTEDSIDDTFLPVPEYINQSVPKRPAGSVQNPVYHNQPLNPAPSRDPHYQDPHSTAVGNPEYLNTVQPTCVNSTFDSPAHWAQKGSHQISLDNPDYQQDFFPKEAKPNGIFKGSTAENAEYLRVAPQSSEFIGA
T4 sequence (P00533 with tags, fused parts or gaps DEL746-750 limits assumed): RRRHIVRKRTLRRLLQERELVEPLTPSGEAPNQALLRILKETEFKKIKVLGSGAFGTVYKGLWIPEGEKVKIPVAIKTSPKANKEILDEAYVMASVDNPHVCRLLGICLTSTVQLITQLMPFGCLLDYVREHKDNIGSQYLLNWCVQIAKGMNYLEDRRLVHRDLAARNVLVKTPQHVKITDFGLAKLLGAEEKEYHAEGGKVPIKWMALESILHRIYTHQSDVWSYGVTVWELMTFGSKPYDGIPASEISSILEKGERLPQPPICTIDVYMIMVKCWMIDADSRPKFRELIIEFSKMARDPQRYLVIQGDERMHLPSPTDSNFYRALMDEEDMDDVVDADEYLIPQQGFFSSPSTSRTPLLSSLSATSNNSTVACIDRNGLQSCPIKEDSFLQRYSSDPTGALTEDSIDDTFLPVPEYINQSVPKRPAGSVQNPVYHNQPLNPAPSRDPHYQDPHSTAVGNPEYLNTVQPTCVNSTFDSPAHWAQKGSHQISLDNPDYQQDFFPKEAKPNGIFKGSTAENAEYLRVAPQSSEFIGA
T8 sequence (P00533 with tags, fused parts or gaps DEL746-750/C797S limits assumed): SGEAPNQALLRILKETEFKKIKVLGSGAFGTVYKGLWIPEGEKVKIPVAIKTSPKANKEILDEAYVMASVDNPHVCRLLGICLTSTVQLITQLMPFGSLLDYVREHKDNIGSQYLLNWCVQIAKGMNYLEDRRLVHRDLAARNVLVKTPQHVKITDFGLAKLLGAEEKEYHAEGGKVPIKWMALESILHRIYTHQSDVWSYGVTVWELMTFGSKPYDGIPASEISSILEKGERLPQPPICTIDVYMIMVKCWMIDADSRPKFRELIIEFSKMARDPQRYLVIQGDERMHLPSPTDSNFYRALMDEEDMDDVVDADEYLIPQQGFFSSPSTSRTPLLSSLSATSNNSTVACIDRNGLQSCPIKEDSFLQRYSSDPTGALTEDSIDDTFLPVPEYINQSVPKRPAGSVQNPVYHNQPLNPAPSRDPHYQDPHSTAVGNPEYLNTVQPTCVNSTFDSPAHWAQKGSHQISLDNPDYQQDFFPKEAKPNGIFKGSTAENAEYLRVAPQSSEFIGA

IC50 [1] [nM]	IC50 [2] [nM]	IC50 [3] [nM]	IC50 [4] [nM]	IC50 [5] [nM]	IC50 [6] [nM]	IC50 [7] [nM]	IC50 [8] [nM]	IC50 [9] [nM]	GI50 [10, 13] [nM]	GI50 [10, 14] [nM]	GI50 [10, 15] [nM]	GI50 [10, 16] [nM]	GI50 [10, 17] [nM]	GI50 [10, 18] [nM]	GI50 [10, 19] [nM]	GI50 ([11]; Homo sapiens, PC-9, 72 h) [nM]	GI50 [12, 20] [nM]	SMILES	further results
74	10	5.1	2.3	3.5	3.2	3.1	1.7	5.3	0.33	1.1	0.47	1.4	0.57	2.9	1.4	2.9	314	C[C@@H]1CCCOc2c(cnn2C)-c2cc(cn(C)c2=O)C(=O)Nc2nc3ccc(N4CC5(CCN(C)CC5)C4)cc3n2C1 [Example A41]	–
1200	86	6.3	9.1	6.2	5.8	6.5	6.5	25	9.3	11	30	22	9.6	51	20	87	2290	C[C@@H]1CCCOc2c(cnn2C2CC2)-c2cc(cn(C)c2=O)C(=O)Nc2nc3ccc(N4CCN(C)CC4)cc3n2C1 [Example A22, (11R)-5-Cyclopropyl-11,26-dimethyl-16-(4-methylpiperazin-1-yl)-7-oxa-4,5,13,20,22,26-hexaazapentacyclo[22.3.1.0^{2,6}.0^{13,21}.0^{14,19}]octacosa-1(28),2(6),3,14,16,18,20,24-octaene-23,27-dione]	–
281	40	6.5	3.4	1.4	2.3	1.2	1.7	13	0.7	3.3	3.2	3.8	2.5	10	5.5	4.3	166	C[C@@H]1CCCOc2c(cnn2C)-c2cc(cn(C)c2=O)C(=O)Nc2nc3ccc(N4CC(N(C)C)C4)cc3n2C1 [Example A37]	–
–	–	–	–	–	–	–	–	–	1.1	1.3	4.6	4.2	8.9	9.8	5	9.1	587	C[C@@H]1CCCOc2c(cnn2C)-c2cc(cn(C)c2=O)C(=O)Nc2nc3ccc(N4CCC5(CCN(C)C5)C4)cc3n2C1 (some centres unmarked) [Example A34]	–
–	–	–	–	–	–	–	–	–	0.43	1.5	3	2.8	2.9	9.1	3.8	7.3	248	C[C@@H]1CCCOc2c(cnn2C)-c2cc(cn(C)c2=O)C(=O)Nc2nc3ccc(N4CC5CCN(C)C5C4)cc3n2C1 (some centres unmarked) [Example A32]	–

The next lines start with the molecule.

SMILES	IC50 [1] [nM]	IC50 [2] [nM]	IC50 [3] [nM]	IC50 [4] [nM]	IC50 [5] [nM]	IC50 [6] [nM]	IC50 [7] [nM]	IC50 [8] [nM]	IC50 [9] [nM]	GI50 [10, 13] [nM]	GI50 [10, 14] [nM]	GI50 [10, 15] [nM]	GI50 [10, 16] [nM]	GI50 [10, 17] [nM]	GI50 [10, 18] [nM]	GI50 [10, 19] [nM]	GI50 ([11]; Homo sapiens, PC-9, 72 h) [nM]	GI50 [12, 20] [nM]	further results
Cn1ncc2c1OCCN1CC(CCC1(C)C)n1c(nc3ccc(N4CCOCC4)cc31)NC(=O)c1cc-2c(=O)n(C)c1 (centres unmarked) [Example A12, 15,21,27,27-Tetramethyl-5-(morpholin-4-yl)-23-oxa-2,9,11,15,20,21,26-heptaazahexacyclo[24.3.1.1^{13,17}.0^{2,10}.0^{3,8}.0^{18,22}]hentriaconta-3,5,7,9,13,17(31),18(22),19-octaene-12,16-dione]	> 5000	482	476	144	89	486	105	119	389	39	265	72	159	122	116	197	149	3130	–
CN1CCN(c2ccc3c(c2)nc2n3C34CCC(CN(CCOc5c(cnn5C)-c5cc(cn(C)c5=O)C(=O)N2)C3)C4)CC1 (centres unmarked) [Example A60, 15,21-dimethyl-6-(4-methylpiperazin-1-yl)-23-oxa-2,9,11,15,20,21,26-heptaazaheptacyclo[24.4.1.1^{1,28}.1^{13,17}.0^{2,10}.0^{3,8}.0^{18,22}]tritriaconta-3,5,7,9,13,17(33),18(22),19-octaene-12,16-dione]	–	917	240	23	8.6	157	9.4	18	619	–	–	–	–	–	–	–	–	–	GI50 ([10]; BaF3 cells, EGFR DEL19-C797S, read-out: DEL19-C797S/BaF3 GI50): 19 nM; GI50 ([10]; BaF3 cells, EGFR DEL19-T790-C797S, read-out: DEL19-T790-C797S/BaF3 GI50): 40 nM; GI50 ([10]; BaF3 cells, EGFR L858R, read-out: L858R/BaF3 GI50): 87 nM; GI50 ([10]; BaF3 cells, EGFR L858R-C797S, read-out: L858R-C797S/BaF3 GI50): 120 nM; GI50 ([10]; BaF3 cells, EGFR L858R-T790-C797S, read-out: L858R-T790-C797S/BaF3 GI50): 86 nM; GI50 ([10]; BaF3 cells, EGFR L858R-T790M, read-out: L858R-T790M/BaF3 GI50): 457 nM; GI50 ([10]; EGFR DEL19-T790M, read-out: DEL19-T790M GI50): 63 nM; GI50 [11]: 146 nM; GI50 ([12]; A-431 cells): 4110 nM
CN(C)CCN(C)c1ccc2nc3n(c2c1)CCN(CC(F)F)CCOc1c(cnn1C)-c1cc(cn(C)c1=O)C(=O)N3 [Example A4, 10-(2,2-Difluoroethyl)-16-{[2-(dimethylamino)ethyl](methyl)amino}-5,26-dimethyl-7-oxa-4,5,10,13,20,22,26-heptaazapentacyclo[22.3.1.0^{2,6}.0^{13,21}.0^{14,19}]octacosa-1(28),2(6),3,14,16,18,20,24-octaene-23,27-dione]	–	–	–	–	–	–	–	–	–	77	811	56	63	76	585	788	183	2540	–
